# In patent US20250248391A1, “VIABLE VITREOUS GRAFTS FOR PRESERVATION AND RECOVER OF TISSUE FOR TRANSPLANT AND CLINICAL USE” (Clemson University Research Foundation, priority 2024, published 2025):
# Where two headings read alike, the source gives them in different places.
# Key:
# [1] = articular cartilage of calves, 22° C.; 3.1M Me2SO, 3.1M PG, 2.2M formamide; ref [4]; cited from earlier work
# [2] = 6.5M, porcine articular cartilage, ref [5], cited from earlier work
# [3] = alamarBlue metabolic activity of meniscal specimens; format: cell-based, Yorkshire pigs; settings: 3.5 mm/SF: 3.5 mm specimens slow-frozen in Me2SO (10% v/v), normalized to specimen before treatment
# Method: (§1) Following the completion of the warming and unloading steps, all tissues were subjected to recovery in DMEM supplemented with 1% P/S (e.g., DMEM/P/S) for one hour within a 37° C. incubator. Subsequently, the alamarBlue assay was conducted to assess the metabolic activity of tissues. This assay employs a water soluble fluorometric viability indicator, relying on the detection of metabolic activity. […] In the case of each meniscal specimen and each TMJ disc, evaluations were carried out both before and after different preservation treatments. For the whole meniscus, each fresh, slow-frozen, or vitrified sample underwent manual sectioning into sagittal sections, each measuring 1-2 mm in thickness, spanning from anterior to posterior horn. Within each region, a minimum of three sections were obtained.
# (§2) Either each individual specimen or each section of the whole meniscus was incubated in 1 ml of DMEM/P/S and 100 μl alamarBlue reagent. This process was carried out under standard cell culture conditions for 3 hours. In contrast, each whole TMJ disc was incubated in 5.4 ml of DMEM/P/S and 600 μl alamarBlue reagent under standard cell culture conditions for 4 hours. Subsequently, fluorescence measurements were conducted in duplicate using a multimode microplate reader at an excitation wavelength of 544 nm and an emission wavelength of 590 nm. Following assessment, each sample was rinsed with DMEM/P/S for 30 mins to remove the alamarBlue reagent prior to proceeding with subsequent measurements. The time-course viability from day 0 to day 4 for each sample was assessed. In the case of meniscal specimens and whole TMJ discs, the results (expressed in relative fluorescence unit, RFU) of the slow-frozen and vitrified groups were normalized to the measurements taken from their respective fresh samples before any preservation treatments were applied. For the measurements of the whole meniscus, the results (expressed as RUF/mg of dry weight) from the slow-frozen and vitrified menisci were normalized to the corresponding values of fresh menisci within the same batch. Dry weight values of samples were measured using an analytical balance after being placed in a 60° C. oven over 48 hours subsequent to the completion of the time-course alamarBlue assay.
# whole menisci [4] = assay: Fluorescence live/dead viability of whole menisci; format: cell-based, Yorkshire pigs; settings: for Viability (%): whole menisci, SF (slow-frozen in Me2SO 10% v/v)
# Method: (§3) Tissue viability was assessed by fluorescence live/dead staining. Each cylindrical specimen was longitudinally divided into two sections for imaging along the sagittal plane. To comprehensively assess the whole meniscus, both transverse and sagittal sections were prepared. In the case of transverse sections, a 300 μm thick slice of the whole meniscus was obtained using a vibrating blade microtome due to its larger surface area. For sagittal sections, approximately 1-2 mm thick slices were manually cut from corresponding regions. For the TMJ disc samples, strips measuring 6 mm in width, encompassing the anterior, central, posterior, medial, and lateral regions, were manually excised from the whole disc using a scalpel. All cut meniscal slices were immersed in DMEM with 1% P/S culture medium with 4 μM calcein AM and 2 μM ethidium homodimer-1 at room temperature for 2 hours before imaging. In contrast, the TMJ slices underwent staining with distinct dye concentrations: 2 µM calcein AM and 4 μM ethidium homodimer-1, following the same set of conditions. The green-fluorescent calcein indicates living cells by intracellular esterase activity, while the red-fluorescent ethidium homodimer-1 indicates dead cells by loss of plasma membrane integrity. All images were captured using an inverted multiphoton laser scanning microscope. The excitation wavelength was set as 800 nm. Green fluorescence was collected within the 495-540 nm range, and red fluorescence was collected in the 575-630 nm range. Images were taken at a depth of 60 μm below the tissue surface. The whole transverse section images of the whole menisci and the whole sagittal section images of the TMJ disc strips were captured using a 4× objective magnification and stitched together. An interesting view of each region was imaged using a higher objective magnification of 10×. All sagittal section images for meniscal specimens, three primary regions of whole menisci, and five primary regions of whole TMJ discs were captured using a 10× objective magnification for quantitative analysis. Live/dead quantification of 3.5 mm thick specimens was performed within the middle layer image (with a thickness of 1.26 mm) to avoid the count of dead cells on both surfaces associated with manual sectioning. In the context of sagittal sections in each region of the whole meniscus, images were acquired, and cell viability was quantified for the inner, middle, and outer layers. Images of sagittal sections in each region of the TMJ disc were acquired and used for viability quantification. Live/dead quantification was performed using software. Cell viability was defined as the proportion between the count of viable cells and the total cell count (comprising both live and dead cells).
# whole menisci [5] = assay: alamarBlue metabolic activity of whole menisci; format: cell-based, Yorkshire pigs
# Method: as §1, §2
# whole TMJ discs [6] = assay: Fluorescence live/dead viability of whole TMJ discs; format: cell-based, Yorkshire pigs; settings: for Viability (%): Slow-frozen (Me2SO 10% v/v)
# Method: as §3
# whole TMJ discs [7] = assay: alamarBlue metabolic activity of whole TMJ discs; format: cell-based, Yorkshire pigs; settings: Slow-frozen (Me2SO 10% v/v)
# Method: as §1, §2
# [8] = human articular cartilage, ref [6], cited from earlier work
# [9] = 1.4M, tissue-engineered collagen scaffold, 20° C.; ref [7]; cited from earlier work
structure (smiles),measurement,setting,value
"CC(O)CO (stereo not shown) [PG, propylene glycol]",D (× 10^−10 m^2/s),[1],3.47 ± 0.67 × 10^−10 m^2/s
same,D (× 10^−10 m^2/s),[2]; 4° C.,0.9 × 10^−10 m^2/s
same,D (× 10^−10 m^2/s),[2]; 22° C.,1.6 × 10^−10 m^2/s
same,D (× 10^−10 m^2/s),[2]; 37° C.,2.2 × 10^−10 m^2/s
"C[S+](C)[O-] [Me2SO, dimethyl sulfoxide]","Metabolic activity, Viability (%)",[3]; Day 0 post-warming,47.0 ± 16.4%
same,"Metabolic activity, Viability (%)",[3]; Day 1,43.0 ± 21.0%
same,"Metabolic activity, Viability (%)",[3]; Day 2,39.0 ± 19.8%
same,"Metabolic activity, Viability (%)",[3]; Day 3,39.5 ± 16.3%
same,"Metabolic activity, Viability (%)",[3]; Day 4,52.6 ± 14.5%
same,"viability in whole menisci, average",whole menisci [4]; slow freezing (Me2SO 10% v/v),~21.6%
same,Viability (%),whole menisci [4]; Anterior region,19.5 ± 9.6%
same,Viability (%),whole menisci [4]; Central region,23.7 ± 6.4%
same,Viability (%),whole menisci [4]; Inner layer of sagittal sections,20.3 ± 13.8%
same,Viability (%),whole menisci [4]; Middle layer of sagittal sections,20.8 ± 8.9%
same,Viability (%),whole menisci [4]; Outer layer of sagittal sections,24.6 ± 16.9%
same,Viability (%),whole menisci [4]; Posterior region,21.4 ± 18.2%
same,"Metabolic activity, Viability (%)","whole menisci [5]; Anterior: SF (slow-frozen in Me2SO 10% v/v), Day 0 post-warming, normalized to fresh menisci day 0",32.9 ± 11.1%
same,"Metabolic activity, Viability (%)","whole menisci [5]; Anterior: SF (slow-frozen in Me2SO 10% v/v), Day 1, normalized to fresh menisci day 0",39.7 ± 10.1%
same,"Metabolic activity, Viability (%)","whole menisci [5]; Anterior: SF (slow-frozen in Me2SO 10% v/v), Day 2, normalized to fresh menisci day 0",31.4 ± 7.8%
same,"Metabolic activity, Viability (%)","whole menisci [5]; Anterior: SF (slow-frozen in Me2SO 10% v/v), Day 3, normalized to fresh menisci day 0",34.0 ± 6.9%
same,"Metabolic activity, Viability (%)","whole menisci [5]; Anterior: SF (slow-frozen in Me2SO 10% v/v), Day 4, normalized to fresh menisci day 0",36.7 ± 7.5%
same,"Metabolic activity, Viability (%)","whole menisci [5]; Central: SF (slow-frozen in Me2SO 10% v/v), Day 0 post-warming, normalized to fresh menisci day 0",43.1 ± 13.8%
same,"Metabolic activity, Viability (%)","whole menisci [5]; Central: SF (slow-frozen in Me2SO 10% v/v), Day 1, normalized to fresh menisci day 0",55.4 ± 16.8%
same,"Metabolic activity, Viability (%)","whole menisci [5]; Central: SF (slow-frozen in Me2SO 10% v/v), Day 2, normalized to fresh menisci day 0",35.1 ± 11.4%
same,"Metabolic activity, Viability (%)","whole menisci [5]; Central: SF (slow-frozen in Me2SO 10% v/v), Day 3, normalized to fresh menisci day 0",37.3 ± 9.6%
same,"Metabolic activity, Viability (%)","whole menisci [5]; Central: SF (slow-frozen in Me2SO 10% v/v), Day 4, normalized to fresh menisci day 0",35.3 ± 11.4%
same,"Metabolic activity, Viability (%)","whole menisci [5]; Posterior: SF (slow-frozen in Me2SO 10% v/v), Day 0 post-warming, normalized to fresh menisci day 0",38.0 ± 9.3%
same,"Metabolic activity, Viability (%)","whole menisci [5]; Posterior: SF (slow-frozen in Me2SO 10% v/v), Day 1, normalized to fresh menisci day 0",47.1 ± 7.2%
same,"Metabolic activity, Viability (%)","whole menisci [5]; Posterior: SF (slow-frozen in Me2SO 10% v/v), Day 2, normalized to fresh menisci day 0",34.9 ± 7.3%
same,"Metabolic activity, Viability (%)","whole menisci [5]; Posterior: SF (slow-frozen in Me2SO 10% v/v), Day 3, normalized to fresh menisci day 0",42.4 ± 7.4%
same,"Metabolic activity, Viability (%)","whole menisci [5]; Posterior: SF (slow-frozen in Me2SO 10% v/v), Day 4, normalized to fresh menisci day 0",45.7 ± 13.5%
same,Viability (%),whole TMJ discs [6]; Anterior,37.4 ± 2.7%
same,Viability (%),whole TMJ discs [6]; Central,40.1 ± 4.2%
same,Viability (%),whole TMJ discs [6]; Lateral,39.0 ± 2.7%
same,Viability (%),whole TMJ discs [6]; Medial,38.3 ± 3.5%
same,Viability (%),whole TMJ discs [6]; Posterior,37.1 ± 2.2%
same,viability,whole TMJ discs [6]; slow-frozen samples (Me2SO 10% v/v),less than 40%
same,"Metabolic activity, Viability (%)","whole TMJ discs [7]; Day 0 post-warming, relative to respective fresh values",32.0 ± 0.8%
same,"Metabolic activity, Viability (%)","whole TMJ discs [7]; Day 1, relative to respective fresh values",33.3 ± 0.5%
same,"Metabolic activity, Viability (%)","whole TMJ discs [7]; Day 2, relative to respective fresh values",28.9 ± 0.5%
same,"Metabolic activity, Viability (%)","whole TMJ discs [7]; Day 3, relative to respective fresh values",29.1 ± 1.7%
same,"Metabolic activity, Viability (%)","whole TMJ discs [7]; Day 4, relative to respective fresh values",28.0 ± 0.6%
same,D (× 10^−10 m^2/s),[1],4.63 ± 0.85 × 10^−10 m^2/s
same,D (× 10^−10 m^2/s),[2]; 4° C.,2.4 × 10^−10 m^2/s
same,D (× 10^−10 m^2/s),[2]; 22° C.,3.0 × 10^−10 m^2/s
same,D (× 10^−10 m^2/s),[2]; 37° C.,4.5 × 10^−10 m^2/s
same,D (× 10^−10 m^2/s),"[8]; 1.4M, 4° C.",6.1 × 10^−10 m^2/s
same,D (× 10^−10 m^2/s),"[8]; 1.4M, 27° C.",14.4 × 10^−10 m^2/s
same,D (× 10^−10 m^2/s),"[8]; 14M, 4° C.",3.1 × 10^−10 m^2/s
same,D (× 10^−10 m^2/s),"[8]; 14M, 27° C.",6.8 × 10^−10 m^2/s
same,D (× 10^−10 m^2/s),[9],2.4 × 10^−10 m^2/s
NC=O [formamide],D (× 10^−10 m^2/s),[1],6.67 ± 0.70 × 10^−10 m^2/s
